Source: patent US9260425B2 (Genetech, Inc., priority 2011, dated 2016)
Where two headings read alike, the source gives them in different places.

Columns and labels:
BaF3 parental cells = experiment: In vitro cell proliferation potency assay, BaF3 parental line with IL-3 (Cell Titer Glo); format: cell-based, murine; conditions: Mus musculus, 2 ng/mL mIL-3, incubated overnight, read-out: Prolif. BaF3 IL3 (IC50)
Protocol: (§1) In Vitro Cell Proliferation Potency Assays
(§2) BaF3 parental line was obtained from the DSMZ repository. BaF3 lines transfected with PIM-1 or PIM-2 were generated. Mouse IL-3 was purchased from R&D Systems. G418 was purchased from Clontech. Media for BaF3 parental line contained RPMI, 10% FBS, 2 mM L-Glutamine, 2 ng/mL mIL-3. Media for BaF3 PIM1 & 2 lines contained RPMI, 10% FBS, 2 mM L-Glutamine, […]. Media for MM1.S (multiple myeloma cells) line contained RPMI, 10% FBS, 2 mM L-Glutamine.
(§3) BaF3, a murine interleukin-3 dependent pro-B cell line, parental cells, BaF3 PIM1 cells, BaF3 PIM-2 cells, and MM1.S (multiple myeloma) cells were seeded at 2 k/well, 5 k/well, 5 k/well, and 10 k/well respectively, in a 384-well plate, at 45 μL/well. Test compound was added at 5 μL/well. BaF3 cells (parental and transfected) were incubated overnight, while MM1.S cells were incubated for 72 hours at 37° C., 5% CO2. Cell Titer Glo Reagent (Promega) was added at 50 μL/well, the plates were incubated for 30 minutes, and their luminescence read on an HT Analyst. IC50/EC50 values for the test compound were calculated.

BaF3 PIM1 cells = experiment: In vitro cell proliferation potency assay, BaF3 line transfected with PIM-1 (Cell Titer Glo); format: cell-based, murine; conditions: incubated overnight, read-out: Prolif. BaF3 PIM-1 (IC50)
Protocol: as §1
as §2, with “BaF3 lines transfected with PIM-1 or PIM-2 were generated.” left out
as §3

Pim-1 = Pim-1 (Homo sapiens (Human), UniProt P11309); experiment: Pim kinase binding activity assay (Example 901), PIM-1 enzyme, Caliper microfluidic peptide phosphorylation; format: biochemical; conditions: 20 pM PIM-1, 10 μM ATP, 1 μM FAM-peptide, 90 minutes at room temperature
How it was run: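 PIM-1 at 20 pM phosphorylated 1 μM FAM-labelled Pim peptide with 10 μM ATP in HEPES pH 7.2, MgCl2, Tween 20 and DTT for 90 min at room temperature. EDTA stopped the reaction, and product and substrate were resolved by microfluidic electrophoresis (ex 488/em 530 nm). Ki was derived from substrate conversion.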

[1] = tested on: MM1.S (multiple myeloma) cells; experiment: In vitro cell proliferation potency assay, MM1.S cells (Cell Titer Glo); format: cell-based; conditions: Homo sapiens, 72 hours, read-out: Prolif. MM1S ATP (EC50)
Protocol: as §1, §2, §3

Chain of Pim-1 (P11309 whole entry): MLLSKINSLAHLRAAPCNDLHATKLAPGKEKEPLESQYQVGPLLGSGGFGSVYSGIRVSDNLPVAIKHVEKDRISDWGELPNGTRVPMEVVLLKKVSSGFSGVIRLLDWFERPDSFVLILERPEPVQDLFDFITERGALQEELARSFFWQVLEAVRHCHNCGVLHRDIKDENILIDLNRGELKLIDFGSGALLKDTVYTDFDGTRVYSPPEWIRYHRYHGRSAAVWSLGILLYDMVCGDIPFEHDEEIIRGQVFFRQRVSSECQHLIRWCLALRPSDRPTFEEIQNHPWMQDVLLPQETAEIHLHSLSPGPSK

Row | Structure (SMILES) | IC50 (BaF3 PIM1 cells; Mus musculus) [nM] | Ki (Pim-1) [nM] | EC50 [1] [nM] | IC50 (BaF3 PIM1 cells) [nM] | IC50 (BaF3 parental cells) [nM]
1 | c1ccc(-c2n[nH]c3cnc(-c4cccnc4)cc23)cc1 [Example 116, 3-phenyl-5-(pyridin-3-yl)-1H-pyrazolo[3,4-c]pyridine] |  |  |  |  | 13700
2 | Fc1ccccc1-c1n[nH]c2cnc(-c3cccnc3)cc12 [Example 117, 3-(2-fluorophenyl)-5-(pyridin-3-yl)-1H-pyrazolo[3,4-c]pyridine] | 18800 |  |  |  | 12900
3 | Cn1cc(-c2cc3c(-c4ccccc4F)n[nH]c3cn2)cn1 [Example 129, 3-(2-fluorophenyl)-5-(1-methyl-1H-pyrazol-4-yl)-1H-pyrazolo[3,4-c]pyridine] | 5200 | 7.85 |  |  | 5600
4 | N[C@H]1CCCN(c2cccc(-c3n[nH]c4cnc(-c5cccnc5)cc34)n2)C1 [Example 161, (S)-1-(6-(5-(pyridin-3-yl)-1H-pyrazolo[3,4-c]pyridin-3-yl)pyridin-2-yl)piperidin-3-amine] | 731 | 0.0411 | 281 |  | 1400
5 | Cn1cc(-c2cc3c(-c4cccc(N5CCC[C@H](N)C5)n4)n[nH]c3cn2)cn1 [Example 173, (S)-1-(6-(5-(1-methyl-1H-pyrazol-4-yl)-1H-pyrazolo[3,4-c]pyridin-3-yl)pyridin-2-yl)piperidin-3-amine] |  |  | 376 | 251 | 5700
6 | N[C@H]1CCCN(c2cccc(-c3n[nH]c4cnc(-c5cncs5)cc34)n2)C1 [Example 349, (S)-1-(6-(5-(thiazol-5-yl)-1H-pyrazolo[3,4-c]pyridin-3-yl)pyridin-2-yl)piperidin-3-amine] | 681 |  | 393 |  | 3400
7 | OCCN1CCCN(c2cccc(-c3n[nH]c4cnc(-c5cccnc5)cc34)n2)CC1 [Example 357, 2-(4-(6-(5-(pyridin-3-yl)-1H-pyrazolo[3,4-c]pyridin-3-yl)pyridin-2-yl)-1,4-diazepan-1-yl)ethanol] | 709 | 0.26 | 244 |  | 4900
8 | N[C@H]1CCCCN(c2cccc(-c3n[nH]c4cnc(-c5cnn(CCF)c5)cc34)n2)C1 [Example 519, (S)-1-(6-(5-(1-(2-fluoroethyl)-1H-pyrazol-4-yl)-1H-pyrazolo[3,4-c]pyridin-3-yl)pyridin-2-yl)azepan-3-amine] |  | 0.025 |  |  | 
9 | N[C@@H]1CCCCN(c2cccc(-c3n[nH]c4cnc(-c5cnn(CCF)c5)cc34)n2)C1 [Example 520, (R)-1-(6-(5-(1-(2-fluoroethyl)-1H-pyrazol-4-yl)-1H-pyrazolo[3,4-c]pyridin-3-yl)pyridin-2-yl)azepan-3-amine] |  | 0.098 |  |  | 
10 | C[C@@H]1CN(c2cccc(-c3n[nH]c4cnc(-c5cnn(CCF)c5)cc34)n2)CCN1 [Example 521, (R)-5-(1-(2-fluoroethyl)-1H-pyrazol-4-yl)-3-(6-(3-methylpiperazin-1-yl)pyridin-2-yl)-1H-pyrazolo[3,4-c]pyridine] |  | 0.026 |  |  | 
11 | Cc1cncc(-c2cc3c(-c4cccc(N5CCCNCC5)n4)n[nH]c3cn2)n1 [Example 522, 3-(6-(1,4-diazepan-1-yl)pyridin-2-yl)-5-(6-methylpyrazin-2-yl)-1H-pyrazolo[3,4-c]pyridine] |  | 0.019 |  |  | 

Continued by falling IC50 (BaF3 PIM1 cells; Mus musculus), values first:

Row | IC50 (BaF3 PIM1 cells; Mus musculus) [nM] | Ki (Pim-1) [nM] | EC50 [1] [nM] | IC50 (BaF3 PIM1 cells) [nM] | Structure (SMILES) | IC50 (BaF3 parental cells) [nM]
12 | 584 | 0.096 | 57.3 |  | NC1CCN(c2nc(-c3n[nH]c4cnc(-c5cccnc5)cc34)ccc2Cl)CC1 [Example 241, 1-(3-chloro-6-(5-(pyridin-3-yl)-1H-pyrazolo[3,4-c]pyridin-3-yl)pyridin-2-yl)piperidin-4-amine] | 1300
13 | 518 | 0.02 | 191 |  | N[C@@H]1CCCN(c2cccc(-c3n[nH]c4cnc(-c5cccnc5)cc34)n2)CC1 [Example 249, (R)-1-(6-(5-(pyridin-3-yl)-1H-pyrazolo[3,4-c]pyridin-3-yl)pyridin-2-yl)azepan-4-amine] | 2500
14 | 478 |  | 707 |  | NC[C@H]1CCN(c2cccc(-c3n[nH]c4cnc(-c5cccnc5)cc34)n2)C1 [Example 270, (R)-(1-(6-(5-(pyridin-3-yl)-1H-pyrazolo[3,4-c]pyridin-3-yl)pyridin-2-yl)pyrrolidin-3-yl)methanamine] | 13100
15 | 368 | 0.121 | 60.4 |  | NC1CCN(c2cncc(-c3cc4c(-c5ccccc5F)n[nH]c4cn3)n2)CC1 [Example 147, 1-(6-(3-(2-fluorophenyl)-1H-pyrazolo[3,4-c]pyridin-5-yl)pyrazin-2-yl)piperidin-4-amine] | 3900
16 | 336 | 0.048 | 201 |  | N[C@H]1CCCN(c2cccc(-c3n[nH]c4cnc(-c5cccnc5)cc34)n2)CC1 [Example 248, (S)-1-(6-(5-(pyridin-3-yl)-1H-pyrazolo[3,4-c]pyridin-3-yl)pyridin-2-yl)azepan-4-amine] | 1600
17 | 274 |  | 3200 |  | COCCn1cc(-c2cc3c(-c4cccc(N5CCNCC5)n4)n[nH]c3cn2)cn1 [Example 382, 5-(1-(2-methoxyethyl)-1H-pyrazol-4-yl)-3-(6-(piperazin-1-yl)pyridin-2-yl)-1H-pyrazolo[3,4-c]pyridine] | 17000
18 | 261 | 0.027 | 166 |  | N[C@@H]1CCCN(c2cccc(-c3n[nH]c4cnc(-c5cccnc5)cc34)n2)C1 [Example 149, (R)-1-(6-(5-(pyridin-3-yl)-1H-pyrazolo[3,4-c]pyridin-3-yl)pyridin-2-yl)piperidin-3-amine] | 1500
19 | 188 |  | 287 |  | N[C@@H]1CCCN(c2cccc(-c3n[nH]c4cnc(-c5cncs5)cc34)n2)C1 [Example 350, (R)-1-(6-(5-(thiazol-5-yl)-1H-pyrazolo[3,4-c]pyridin-3-yl)pyridin-2-yl)piperidin-3-amine] | 3600
20 | 159 | 0.27 | 67.2 |  | N[C@H]1CCN(c2cncc(-c3cc4c(-c5ccccc5F)n[nH]c4cn3)c2)C1 [Example 190, (S)-1-(5-(3-(2-fluorophenyl)-1H-pyrazolo[3,4-c]pyridin-5-yl)pyridin-3-yl)pyrrolidin-3-amine] | 1800
21 | 130 | 0.0839 | 2200 |  | NC1CCN(c2cccc(-c3n[nH]c4cnc(-c5cccnc5)cc34)n2)CC1 [Example 144, 1-(6-(5-(pyridin-3-yl)-1H-pyrazolo[3,4-c]pyridin-3-yl)pyridin-2-yl)piperidin-4-amine] | 3300
22 | 76.6 | 0.073 | 638 |  | CCn1cc(-c2cc3c(-c4cccc(N5CCNCC5)n4)n[nH]c3cn2)cn1 [Example 356, 5-(1-ethyl-1H-pyrazol-4-yl)-3-(6-(piperazin-1-yl)pyridin-2-yl)-1H-pyrazolo[3,4-c]pyridine] | 5400
23 | 67.1 | 0.014 | 141 |  | C=Cc1ccc(-c2n[nH]c3cnc(-c4cccnc4)cc23)nc1N1CCC[C@H](N)C1 [Example 307, (S)-1-(6-(5-(pyridin-3-yl)-1H-pyrazolo[3,4-c]pyridin-3-yl)-3-vinylpyridin-2-yl)piperidin-3-amine] | 1400
24 | 62.8 | 0.0549 | 114 |  | Cc1ccc(-c2n[nH]c3cnc(-c4cccnc4)cc23)nc1N1CC[C@@H](N)C1 [Example 316, (R)-1-(3-methyl-6-(5-(pyridin-3-yl)-1H-pyrazolo[3,4-c]pyridin-3-yl)pyridin-2-yl)pyrrolidin-3-amine] | 1000
25 | 47.1 |  | 631 |  | N[C@H]1CCCN(c2cncc(-c3cc4c(-c5ccccc5F)n[nH]c4cn3)n2)C1 [Example 152, (S)-1-(6-(3-(2-fluorophenyl)-1H-pyrazolo[3,4-c]pyridin-5-yl)pyrazin-2-yl)piperidin-3-amine] | 2700
26 | 28 |  | 436 |  | N[C@@H]1CCCN(c2cncc(-c3cc4c(-c5ccccc5F)n[nH]c4cn3)n2)C1 [Example 153, (R)-1-(6-(3-(2-fluorophenyl)-1H-pyrazolo[3,4-c]pyridin-5-yl)pyrazin-2-yl)piperidin-3-amine] | 2500
